Test results reported in PubChem BioAssay (NCI).
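48-hour exposure; five concentrations; linearly interpolated endpoints. Here, GI50 denotes the concentration required for 50% inhibition of growth. TGI marks complete inhibition of growth.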

Experiments:
Assay in all cases: growth of human tumour cells (NCI), 48 h
OVCAR-3 ovarian = test system: OVCAR-3 ovarian
RXF 393 renal = test system: RXF 393 renal
HCC-2998 colon = test system: HCC-2998 colon
SF-268 CNS = test system: SF-268 CNS
DU-145 prostate = test system: DU-145 prostate
U251 CNS = test system: U251 CNS
HT29 colon = test system: HT29 colon
SF-295 CNS = test system: SF-295 CNS
CAKI-1 renal = test system: CAKI-1 renal
M14 melanoma = test system: M14 melanoma
NCI-H460 lung = test system: NCI-H460 lung
SF-539 CNS = test system: SF-539 CNS
CCRF-CEM leukemia = test system: CCRF-CEM leukemia
RPMI-8226 leukemia = test system: RPMI-8226 leukemia
IGROV1 ovarian = test system: IGROV1 ovarian
SW-620 colon = test system: SW-620 colon
HCT-15 colon = test system: HCT-15 colon
ACHN renal = test system: ACHN renal
UACC-257 melanoma = test system: UACC-257 melanoma
T-47D breast = test system: T-47D breast
SNB-75 CNS = test system: SNB-75 CNS
MCF7 breast = test system: MCF7 breast
NCI-H226 lung = test system: NCI-H226 lung
SK-MEL-5 melanoma = test system: SK-MEL-5 melanoma
EKVX NSCLC = test system: EKVX NSCLC
NCI-H23 lung = test system: NCI-H23 lung
SK-MEL-28 melanoma = test system: SK-MEL-28 melanoma
SK-OV-3 ovarian = test system: SK-OV-3 ovarian
KM12 colon = test system: KM12 colon
OVCAR-8 ovarian = test system: OVCAR-8 ovarian
UACC-62 melanoma = test system: UACC-62 melanoma
HOP-62 NSCLC = test system: HOP-62 NSCLC
MOLT-4 leukemia = test system: MOLT-4 leukemia
SK-MEL-2 melanoma = test system: SK-MEL-2 melanoma
BT-549 breast = test system: BT-549 breast
SNB-19 CNS = test system: SNB-19 CNS
MALME-3M melanoma = test system: MALME-3M melanoma
COLO 205 colon = test system: COLO 205 colon
SN12C renal = test system: SN12C renal
HCT-116 colon = test system: HCT-116 colon
LOX IMVI melanoma = test system: LOX IMVI melanoma
MDA-MB-231 breast = test system: MDA-MB-231 breast
TK-10 renal = test system: TK-10 renal
A549 NSCLC = test system: A549 NSCLC
NCI-H522 lung = test system: NCI-H522 lung
786-0 renal = test system: 786-0 renal
HS 578T breast = test system: HS 578T breast
NCI/ADR-RES ovarian = test system: NCI/ADR-RES ovarian
UO-31 renal = test system: UO-31 renal
OVCAR-5 ovarian = test system: OVCAR-5 ovarian
PC-3 prostate = test system: PC-3 prostate
A498 renal = test system: A498 renal
OVCAR-4 ovarian = test system: OVCAR-4 ovarian
MDA-MB-435 = test system: MDA-MB-435
HOP-92 NSCLC = test system: HOP-92 NSCLC
HL-60(TB) leukemia = test system: HL-60(TB) leukemia
K-562 leukemia = test system: K-562 leukemia

## O=C(Nc1ccncc1)C(=O)c1cn(S(=O)(=O)c2ccc(F)cc2)c2ccccc12
OVCAR-3 ovarian
  GI50: 1.76 µM
  TGI: 7.6 µM
RXF 393 renal
  GI50: 2.6 µM
  TGI: 8.72 µM
HCC-2998 colon
  GI50: 8.57 µM
  TGI: > 100 µM
SF-268 CNS
  GI50: 4.4 µM
  TGI: > 100 µM
DU-145 prostate
  GI50: 3.37 µM
  TGI: 20.4 µM
U251 CNS
  GI50: 3.48 µM
  TGI: > 100 µM
HT29 colon
  GI50: 1.88 µM
  TGI: > 100 µM
SF-295 CNS
  GI50: 3.01 µM
  TGI: 38.1 µM
CAKI-1 renal
  GI50: 2.19 µM
  TGI: 10.9 µM
M14 melanoma
  GI50: 1.78 µM
  TGI: > 100 µM
NCI-H460 lung
  GI50: 16.3 µM
  TGI: > 100 µM
SF-539 CNS
  GI50: 2.1 µM
  TGI: 53.7 µM
CCRF-CEM leukemia
  GI50: 6.21 µM
  TGI: > 100 µM
RPMI-8226 leukemia
  GI50: 2.54 µM
  TGI: > 100 µM
IGROV1 ovarian
  GI50: 4.23 µM
  TGI: > 100 µM
SW-620 colon
  GI50: 2.34 µM
  TGI: > 100 µM
HCT-15 colon
  GI50: 1.41 µM
  TGI: > 100 µM
ACHN renal
  GI50: 5.76 µM
  TGI: > 100 µM
UACC-257 melanoma
  GI50: 11.7 µM
  TGI: > 100 µM
T-47D breast
  GI50: 2.24 µM
  TGI: 61 µM
SNB-75 CNS
  GI50: 2.76 µM
  TGI: 15.7 µM
MCF7 breast
  GI50: 0.779 µM
  TGI: > 100 µM
NCI-H226 lung
  GI50: 9.15 µM
  TGI: > 100 µM
SK-MEL-5 melanoma
  GI50: 1.84 µM
  TGI: 16.3 µM
EKVX NSCLC
  GI50: 3.9 µM
  TGI: > 100 µM
NCI-H23 lung
  GI50: 2.54 µM
  TGI: > 100 µM
SK-MEL-28 melanoma
  GI50: 6.82 µM
  TGI: 36.2 µM
SK-OV-3 ovarian
  GI50: 22.3 µM
  TGI: 85.9 µM
KM12 colon
  GI50: 1.49 µM
  TGI: > 100 µM
OVCAR-8 ovarian
  GI50: 4.33 µM
  TGI: > 100 µM
UACC-62 melanoma
  GI50: 3.4 µM
  TGI: > 100 µM
HOP-62 NSCLC
  GI50: 3.02 µM
  TGI: > 100 µM
MOLT-4 leukemia
  GI50: 5.22 µM
  TGI: > 100 µM
SK-MEL-2 melanoma
  GI50: 4.74 µM
  TGI: 52.9 µM
BT-549 breast
  GI50: 1.58 µM
  TGI: 39.9 µM
SNB-19 CNS
  GI50: 19.5 µM
  TGI: > 100 µM
MALME-3M melanoma
  GI50: 1.61 µM
  TGI: 88.8 µM
COLO 205 colon
  GI50: 24.7 µM
  TGI: > 100 µM
SN12C renal
  GI50: 6.58 µM
  TGI: > 100 µM
HCT-116 colon
  GI50: 0.781 µM
  TGI: 34.1 µM
LOX IMVI melanoma
  GI50: 2.22 µM
  TGI: > 100 µM
MDA-MB-231 breast
  GI50: 5.97 µM
  TGI: > 100 µM
TK-10 renal
  GI50: 19.2 µM
  TGI: 72.4 µM
A549 NSCLC
  GI50: 18.5 µM
  TGI: > 100 µM
NCI-H522 lung
  GI50: 0.823 µM
  TGI: > 100 µM
786-0 renal
  GI50: 4.55 µM
  TGI: 79.7 µM
HS 578T breast
  GI50: 3.65 µM
  TGI: 82.1 µM
NCI/ADR-RES ovarian
  GI50: 1.76 µM
  TGI: > 100 µM
UO-31 renal
  GI50: 2.64 µM
  TGI: 48.3 µM
OVCAR-5 ovarian
  GI50: 7.96 µM
  TGI: > 100 µM
PC-3 prostate
  GI50: 4.45 µM
  TGI: > 100 µM
A498 renal
  GI50: 6.57 µM
  TGI: 63.2 µM
OVCAR-4 ovarian
  GI50: 23.1 µM
  TGI: > 100 µM

## COc1cc(F)ccc1-c1ncnc(Nc2cccc(CS(C)(=N)=O)c2)n1 (stereo not given)
OVCAR-3 ovarian
  GI50: 0.45 µM
  TGI: > 100 µM
RXF 393 renal
  GI50: 0.239 µM
  TGI: 0.534 µM
HCC-2998 colon
  GI50: 2.54 µM
  TGI: > 100 µM
SF-268 CNS
  GI50: 0.707 µM
  TGI: > 100 µM
DU-145 prostate
  GI50: 0.784 µM
  TGI: > 100 µM
U251 CNS
  GI50: 0.779 µM
  TGI: > 100 µM
HT29 colon
  GI50: 0.642 µM
  TGI: 6.39 µM
CAKI-1 renal
  GI50: 1.92 µM
  TGI: > 100 µM
M14 melanoma
  GI50: 2.25 µM
  TGI: > 100 µM
NCI-H460 lung
  GI50: 1.79 µM
  TGI: > 100 µM
SF-539 CNS
  GI50: 0.385 µM
  TGI: 2.94 µM
CCRF-CEM leukemia
  GI50: 0.447 µM
  TGI: > 100 µM
RPMI-8226 leukemia
  GI50: 3.17 µM
  TGI: 61 µM
IGROV1 ovarian
  GI50: 0.65 µM
  TGI: > 100 µM
SW-620 colon
  GI50: 0.673 µM
  TGI: > 100 µM
HCT-15 colon
  GI50: 0.495 µM
  TGI: > 100 µM
ACHN renal
  GI50: 0.476 µM
  TGI: > 100 µM
SNB-75 CNS
  GI50: 0.434 µM
  TGI: 3.46 µM
MCF7 breast
  GI50: 0.414 µM
  TGI: > 100 µM
NCI-H226 lung
  GI50: 0.497 µM
  TGI: > 100 µM
EKVX NSCLC
  GI50: 1.4 µM
  TGI: 37.2 µM
NCI-H23 lung
  GI50: 0.679 µM
  TGI: 7.14 µM
SK-MEL-28 melanoma
  GI50: 1.05 µM
  TGI: > 100 µM
SK-OV-3 ovarian
  GI50: 2.9 µM
  TGI: > 100 µM
KM12 colon
  GI50: 0.561 µM
  TGI: > 100 µM
OVCAR-8 ovarian
  GI50: 1.16 µM
  TGI: > 100 µM
UACC-62 melanoma
  GI50: 0.361 µM
  TGI: 3.4 µM
HOP-62 NSCLC
  GI50: 0.564 µM
  TGI: 8.38 µM
MOLT-4 leukemia
  GI50: 2.01 µM
  TGI: 7.06 µM
SK-MEL-2 melanoma
  GI50: 1.08 µM
  TGI: 3.47 µM
BT-549 breast
  GI50: 1.07 µM
  TGI: > 100 µM
SNB-19 CNS
  GI50: 1.08 µM
  TGI: > 100 µM
MALME-3M melanoma
  GI50: 2.73 µM
  TGI: 9.66 µM
COLO 205 colon
  GI50: 0.4 µM
  TGI: 2.18 µM
SN12C renal
  GI50: 0.645 µM
  TGI: > 100 µM
HCT-116 colon
  GI50: 0.421 µM
  TGI: > 100 µM
LOX IMVI melanoma
  GI50: 0.373 µM
  TGI: > 100 µM
MDA-MB-231 breast
  GI50: 1.74 µM
  TGI: > 100 µM
MDA-MB-435
  GI50: 1.55 µM
  TGI: > 100 µM
HOP-92 NSCLC
  GI50: 0.671 µM
  TGI: 4.19 µM
HL-60(TB) leukemia
  GI50: 0.392 µM
  TGI: 3.14 µM
A549 NSCLC
  GI50: 2.83 µM
  TGI: > 100 µM
NCI-H522 lung
  GI50: 1.6 µM
  TGI: 6.34 µM
786-0 renal
  GI50: 1.18 µM
  TGI: > 100 µM
HS 578T breast
  GI50: 1.21 µM
  TGI: 23.9 µM
NCI/ADR-RES ovarian
  GI50: 3.19 µM
  TGI: > 100 µM
UO-31 renal
  GI50: 0.528 µM
  TGI: > 100 µM
K-562 leukemia
  GI50: 3.78 µM
  TGI: > 100 µM
OVCAR-5 ovarian
  GI50: 0.827 µM
  TGI: > 100 µM
PC-3 prostate
  GI50: 1.28 µM
  TGI: 7.7 µM
A498 renal
  GI50: 0.424 µM
  TGI: 1.66 µM
OVCAR-4 ovarian
  GI50: 2.4 µM
  TGI: > 100 µM
